Consider one compound from article PMC7828111, “In Search for Multi-Target Ligands as Potential Agents for Diabetes Mellitus and Its Complications—A Structure-Activity Relationship Study on Inhibitors of Aldose Reductase and Protein Tyrosine Phosphatase 1B” (Molecules, 2021).

Data set [1] has as its system insulin receptor (IRβ) phosphorylation in C2C12 cells. Nature of the data set: Insulin receptor phosphorylation in C2C12 cells (western blot). The format is cell-based, murine. How it is done:
The insulin mimetic/sensitizing activity of compound 4f was evaluated on both HepG2 and C2C12 cells. Starved HepG2 and C2C12 cells were incubated in the presence of compound 4f (25 μM) for 90 min and after stimulated or not with insulin (10 nM). Then, cells extracts were analysed to evaluate phosphorylation levels of the insulin receptor.
HepG2 and differentiated C2C12 cells were starved for 24 h and then incubated in the presence of compound 4f (25 μM, final concentration) for 90 min. After this time, cells were washed with PBS and then stimulated or not with 10 nM insulin for 30 min. Then, cells were lysed and cellular proteins separated on a 12% SDS-PAGE. After electrophoresis, cellular proteins were transferred on a PVDF membrane by western blot technique and then probed against antibodies able to specifically recognize insulin receptor (I2033 Sigma Aldrich) or phosphorylated form of IR (MABS65, Sigma-Aldrich). Sample loading was evaluated probing PVDF membrane with anti-actin antibodies (ABT1485 Sigma Aldrich).
Background: Immunoblotting shows a protein as a band on a membrane.

For data set [2], the target named is T1, human recombinant AR (Homo sapiens, UniProt P15121).
T1 construct: made in house; host or cells: E. coli BL21(DE3)pLysS
The data set can be described thus: Reversibility of AR inhibition (dialysis). The format is biochemical. How it is done: In order to evaluate the reversibility of the inhibitory action, 8 mU of purified AR were assayed in the presence of 5 μM of compounds 4a, 4e and 4f. In these conditions less than 15% of the enzyme activity was measured in the presence of 2 mM L-idose as substrate. The mixture was then extensively dialysed on Amicon ultrafiltration membrane (cut off 10 KDa) against 10 mM sodium phosphate buffer, pH 7.0. After dialysis, the enzyme activity was again measured as above and compared to that of a mixture in the absence of inhibitor and treated in the same conditions.

Data set [3] addresses T1, human recombinant AR. Nature of the data set: Inhibition of human recombinant AR, L-idose as substrate (NADPH oxidation at 340 nm). Type of data set: biochemical. Particulars: human recombinant AR, 2 mM L-idose as substrate; mean ± S.E.M. How it is done:
The human recombinant AR was expressed in BL21(DE3)pLysS E. coli cells and purified to electrophoretic homogeneity as previously described. The purified enzyme (specific activity 5.0 U/mg) was stored at −80 °C in 10 mM sodium phosphate buffer pH 7.0 containing 2 mM dithiothreitol and 30% (w/v) glycerol. AR activity was determined at 37 °C as previously described evaluating the decrease in absorbance at 340 nm linked to NADPH oxidation. […] One unit of enzyme activity is the amount that catalyzes the conversion of 1 μmol of substrate/min in the above assay conditions.
All compounds tested as aldose reductase inhibitors were dissolved in DMSO and added to the assay mixture containing 8 mU of purified AR. The reaction was started by addition of the substrate. The DMSO concentration in all the assays was kept constant at 0.5% (v/v) in order to avoid effects on AR activity.
The IC50 values were determined by nonlinear regression analysis using Prism GraphPad 6.0 fitting experimental data to the following equation:(1) vi/v0= Max−Min/1+( I/IC50)^slope +Min
In the equation, vi/v0, represents the ratio between the activity measured in the presence of the inhibitor and the activity measured in the absence of inhibitor; Max and Min represent the expected maximal and minimal value of the activity and were fixed at 1 and zero, respectively. Slope, which describes the steepness of curve in the transition region, was fixed at −1. For each compound, at least five different concentrations of inhibitor in the triplicate assay were analyzed.

The target of another data set is T2, human recombinant PTP1B (Homo sapiens, UniProt P18031).
T2 sequence (P18031 1-435): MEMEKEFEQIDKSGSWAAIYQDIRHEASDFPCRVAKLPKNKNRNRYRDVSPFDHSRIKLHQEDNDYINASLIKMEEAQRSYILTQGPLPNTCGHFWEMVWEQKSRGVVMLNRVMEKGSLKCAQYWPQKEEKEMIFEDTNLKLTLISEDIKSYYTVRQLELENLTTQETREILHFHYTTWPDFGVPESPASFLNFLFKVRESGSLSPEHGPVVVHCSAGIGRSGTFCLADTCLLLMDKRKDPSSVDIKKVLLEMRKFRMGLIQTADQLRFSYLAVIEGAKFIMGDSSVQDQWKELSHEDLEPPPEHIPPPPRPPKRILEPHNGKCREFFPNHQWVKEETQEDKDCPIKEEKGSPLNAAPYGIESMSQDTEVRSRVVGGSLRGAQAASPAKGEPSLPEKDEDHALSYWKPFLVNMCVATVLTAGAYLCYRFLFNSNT
Nature of the data set: Kinetic analysis of PTP1B inhibition (Lineweaver-Burk plot). The format is biochemical. Particulars: pNPP as substrate. How it is done:
Kinetic analyses were carried out to dissect action mechanism of compound 4e and 4f. Briefly, the main kinetic parameters, Km and Vmax, were calculated measuring the initial hydrolysis rate of PTP1B in the presence of increasing pNPP concentration (seven different concentrations in the 0.5–25 mM range). All assays were carried out in duplicate. Data obtained were fitted using the Michaelis-Menten equation. To evaluate the action mechanism of inhibitors, we studied the dependence of Km and Vmax from inhibitors concentration, using three different inhibitor concentrations, at least. Data obtained were then analysed by double reciprocal plot (Lineweaver-Burk plot).

Another data set concerns C2C12 cells. Nature of the data set: Cell viability, MTT assay, C2C12. Particulars: C2C12, 48 h. The format is cell-based, murine. How it is done: Human liver cells (HepG2) and murine myoblasts (C2C12) were purchased by Sigma-Aldrich, which obtained them from the European Collection of Authenticated Cell Cultures (ECACC). HepG2 and C2C12 cells were grown in Dulbecco’s Modified Eagle’s medium (DMEM) supplemented with 10% foetal bovine serum (FBS), 2 mM glutamine, 100 IU/mL penicillin, 100 μg/mL streptomycin (Sigma-Aldrich, St. Louis, MO, USA), in a humidified atmosphere and with 5% CO2 at 37 °C. Differentiation of C2C12 was induced incubating murine myoblasts in DMEM supplemented with 2% horse serum. C2C12 cells were plated and grown until they reach 70% confluence. Then, cells were incubated in the presence of 2% horse serum for 96 h. Every 48 h, the medium was replaced with fresh medium. After 96 h, the degree of differentiation was evaluated analysing cells with a contrast phase microscope.
HepG2 and C2C12 cells were incubated in the presence of increasing concentrations of compounds 4e and 4f for 48 h at 37 °C. After this time, cells were washed with PBS and then incubated for 1 h with 0.5 mg/mL of MTT dissolved in complete medium. Then cells were washed and lysed with 300 μL of DMSO. The absorbance of solutions were evaluated using a microplate readers at 595 nm. All data were normalized respect to control experiment.
For orientation: Formazan colour is commonly taken as a measure of viable cells.

Structures are written as SMILES.

By IC50 is commonly meant the point on the concentration scale where inhibition reaches its midpoint. On to `O=C(O)CCN1C(=O)/C(=C/c2ccc(OCCc3ccccc3)cc2)SC1=S` [4f, 3-[(5Z)-4-Oxo-{5-[4-(2-phenylethoxy)phenyl]methylidene}-2-thioxothiazolidin-3-yl]propanoic acid], for which the “IRβ phosphorylation levels after insulin versus insulin alone” value in data set [1] (C2C12, 25 μM for 90 min, then 10 nM insulin 30 min) is “significantly higher”. Also, the “Effect on basal IR phosphorylation levels” value in data set [1] (C2C12, 25 μM, 90 min, no insulin) was “did not appreciably affect”. Moreover, the “AR enzyme activity recovered after removal of the inhibitor upon extensive dialysis” value at human recombinant AR [2] (5 μM compound before dialysis) was “more than 90%”. Also, the “AR enzyme activity measured in the presence of compound” value on human recombinant AR [2] (5 μM compound, 2 mM L-idose, before dialysis) is recorded as “less than 15%”. Moreover, at human recombinant AR [3], the IC50 stood at 5.3 ± 0.4 µM. In addition, at human recombinant PTP1B, the “Mechanism of PTP1B inhibition” value is given as “mixed-type non-competitive inhibitors” and the “PTP1B K′i (apparent dissociation constant, EIS complex)” value is 2.3 ± 0.1 µM. In addition, the Ki at human recombinant PTP1B (read-out: PTP1B Ki (apparent dissociation constant)) is 0.9 ± 0.1 µM. Besides, the “Concentration at which a reduction of cell viability was observed” value in the data set on C2C12 cells (highest concentration tested) is 50 µM. Also, the “Cytotoxicity (cell viability, MTT)” value in the data set on C2C12 cells (up to 50 μM) is “well tolerated”.
